Key:
EGFR = EGFR (Homo sapiens, UniProt P00533); assay: Immunoprecipitation of EGF-R and immunoblotting for tyrosine phosphorylation in NCI-H292 cells; type: cell-based; design: These cells express EGF-R constitutively; endogenous in cells; host or cells: NCI-H292 (human pulmonary mucoepidermoid carcinoma); conditions: within 15 min of stimulus
Description: Immunoprecipitation for EGF-R Protein and Immunoblotting for Tyrosine Phosphorylation. Cells were serum-starved for 24 h and then stimulated with TGFα, H2O2, or the supernatant of activated neutrophils for 15 min. After stimulation, cells were lysed and incubated for 30 min in an orbital shaker at 4° C. To remove insoluble material, cell lysates were centrifuged at 14,000 rpm for 5 min at 4° C. Aliquots of supernatants containing equal amounts of protein were immunoprecipitated with anti-EGF receptor antibody (polyclonal, Ab4, Calbiochem) and 20 μl of protein A-agarose (Santa Cruz) for 2 h at 4° C. Precipitates were washed three times with 0.5 ml of lysis buffer, suspended in SDS sample buffer, and boiled for 5 min. Proteins were separated by SDS-PAGE in 8.0% acrylamide gel. The resulting gel was equilibrated in the transfer buffer: 25 mM Tris-HCl, 192 mM glycine, 20% (vol/vol) methanol, pH 8.3. The proteins were then transferred electrophoretically to nitrocellulose membranes (0.22 μm), blocked with 5% fat-free skimmed milk in PBS containing 0.05% Tween 20 overnight and then incubated with monoclonal anti-phosphotyrosine antibody (1:100,Santa Cruz) for 1 h. Bound antibody was visualized according to a standard protocol for the avidin-biotin-alkaline phosphatase complex method (ABC kit, Vector Laboratories).

NCI-H292 cells [1] = assay: In situ hybridization for MUC5AC gene in NCI-H292 cells (Example 2); type: cell-based, human; conditions: within 12 h
Description: Cell Culture. NCI-H292 cells, a human pulmonary mucoepidermoid carcinoma cell line, were grown in RPMI 1640 medium containing 10% fetal bovine serum, penicillin (100 U/ml), streptomycin (100 μg/ml) and Hepes (25 mM) at 37° C. in a humidified 5% CO2, water-jacketed incubator. Either 6-well culture plates or 8-chamber slides were used to culture the cells. When confluent, cells were incubated for 1 h with neutrophils (10^6 cells/ml) alone, TNFα alone (recombinant human TNFα, 20 ng/ml, Genzyme, Cambridge, Mass.), IL-8 (recombinant human IL-8, 10^−8 M, Genzyme) alone, fMLP (10^−8 M, Sigma, St. Louis, Mo.) alone, TNFα plus neutrophils, IL-8 plus neutrophils, fMLP plus neutrophils, hydrogen peroxide (H2O2, 200 μM), cigarette smoke solution or TGFα (recombinant human TGFα, 0.1-25 ng/ml, Calbiochem, San Diego, Calif.). The cells were then washed and incubated with fresh medium alone. Experiments were terminated at preselected times (for mRNA, 6 h and 12 h; for protein, 24 h). As controls, cells were incubated with medium alone for same time periods. […] NCI-H292 cells were incubated for 1 h with either neutrophils that had been incubated with TNFα (20 ng/ml) for 1 h and then washed with sterile PBS to avoid contamination with the supernatant (e.g., molecules released from neutrophils), or the NCI-H292 cells were incubated with supernatant only. […]

NCI-H292 cells [2] = assay: Immunoassay of MUC5AC protein in NCI-H292 cells (Example 2); type: cell-based, human
Description: Cell Culture. NCI-H292 cells, a human pulmonary mucoepidermoid carcinoma cell line, were grown in RPMI 1640 medium containing 10% fetal bovine serum, penicillin (100 U/ml), streptomycin (100 μg/ml) and Hepes (25 mM) at 37° C. in a humidified 5% CO2, water-jacketed incubator. Either 6-well culture plates or 8-chamber slides were used to culture the cells. […] The cells were then washed and incubated with fresh medium alone. Experiments were terminated at preselected times (for mRNA, 6 h and 12 h; for protein, 24 h). As controls, cells were incubated with medium alone for same time periods. […] In inhibition studies with blocking antibodies to EGF-R ligands, the supernatants were pretreated with anti-TGFα antibody (Calbiochem) or anti-EGF antibody for 30 min and then added to NCI-H292 cells. The role of oxygen free radicals was examined using scavengers of oxygen free radical DMSO (1%, Sigma), 1,3-dimethyl-2-thiourea (DMTU, 50 mM, Sigma), or superoxide dismutase (SOD, 300 U/ml, Sigma).
Preparation of Cigarette Smoke Solution. Research cigarettes (code2R1, produced for the University of Kentucky Tobacco and Health Research Foundation) were used in the study. Cigarette smoke solution was prepared as previously described (Dusser et al. (1989) J. Clin. Invest. 84:900-906). In brief, cigarette smoke was withdrawn into a polypropylene syringe (35 ml) at a rate of one puff/min (10 times) and bubbled slowly into 20 ml of RPM11640 containing 50 mM Hepes buffer. The smoke solution was then titrated to pH 7,4 and used immediately after preparation.
Immunoassay of MUC5AC Protein. MUC5AC protein was measured as described above. In brief, cell lysates were prepared with PBS at multiple dilutions, and 50 μl of each sample was incubated with bicarbonate-carbonate buffer (50 μl) at 40° C. in a 96-well plate (Maxisorp Nunc, Fisher Scientific, Santa Clara, Calif.), until dry. Plates were washed three times with PBS and blocked with 2% BSA (fraction V, Sigma) for 1 h at room temperature. Plates were again washed three times with PBS and then incubated with 50 μl of mouse monoclonal MUC5AC antibody (1:100) that was diluted with PBS containing 0.05% Tween 20. After 1 h, the wells were washed three times with PBS, and 100 μl horseradish peroxidase-goat anti-mouse IgG conjugate (1:10,000, Sigma) was dispensed into each well. After 1 h, plates were washed three times with PBS. Color reaction was developed with TMB peroxidase solution (Kirkegaard & Perry Laboratories, Gaithersburg, Md.) and stopped with 2N H2SO4. Absorbance was read at 450 nm.

NCI-H292 cells [3] = assay: Alcian blue/PAS staining of NCI-H292 cells for mucin glycoproteins; type: cell-based, human; conditions: TNFα 20 ng/ml; EGF, TGFα each 25 ng/ml
Description: (§1) Cell culture. A human pulmonary mucoepidermoid carcinoma cell line, NCI-H292 cells, were grown in RPMI11640 medium containing 10% fetal bovine serum, penicillin (100 U/ml), streptomycin (100 μg/ml) at 37° C. in a humidified 5% CO2 water-jacketed incubator. […] In inhibition studies with an EGF-R tyrosine kinase inhibitor, BIBX1522 (10 μg/ml, generously provided by Boehringer Ingelheim Inc., Ingelheim, Germany), cells were pretreated with BIBX1522 30 min before adding growth factors. After incubation, cells grown in a T-75 flask were used for total RNA extraction or protein extraction, and 8-chamber slides were used for Alcian blue/PAS-staining to visualize mucins.

NCI-H292 cells [4] = assay: Northern analysis for MUC5 gene expression in NCI-H292 cells; type: cell-based, human; conditions: EGF or TGFα 25 ng/ml, TNFα 20 ng/ml; 12 h, 24 h
Description: as §1

pathogen-free rats = assay: Goblet cell production in pathogen-free rats after tracheal instillation of TNFα and EGF-R ligands; type: in vivo, rat; conditions: intratracheal 600 ng, alone
Description: Healthy rats. Rats were anesthetized with methohexital sodium (Brevital sodium, 50 mg/kg, i.p.; Eli Lilly & Co., Indianapolis, Ind.) and allowed to breathe spontaneously. […] In each study, sterile PBS (100 μl) was instilled into the trachea as control. […] Rats were pretreated with BIBX1522 (3, 10 or 30 mg/kg, i.p.), 1 h before and 24 h after instillation of TGFα. The trachea and lungs were removed for examination 48 h after the instillation of TGFα.
Tissue preparation. At preselected times during anesthesia, the systemic circulation was perfused with 1% paraformaldehyde in DEPC-treated PBS at a pressure of 120 mmHg. The trachea was then removed and placed in 4% paraformaldehyde for 24 h. After fixation, trachea and lungs were embedded in either JB-4 plus monomer solution A for cell analysis or O.C.T. compound (Sakura Finetek U.S.A., Inc., Torrance, Calif.) for immunohistochemistry and in situ hybridization. The embedded tissues were cut as cross sections ([…] thick) and placed on slides.
Cell analysis. We counted the total number of epithelial cells by counting epithelial cell nuclei over 2 mm of the basal lamina with an oil immersion objective lens (×1000 magnification). The linear length of the basal lamina under each analyzed region of epithelium was determined by tracing the contour of the digitized image of the basal lamina. After instillation of stimuli, “developing” goblet cells form. These cells have Alcian blue/PAS-positive granules, but the size of granules is small, and the number of cytoplasmic granules is few. We call these “developing” goblet cells “pre-goblet cells”, a stage before cells become mature goblet cells. Goblet cells are tall, cuboidal, goblet to low columnar in shape, with abundant Alcian blue/PAS-stained granules filling most of the cytoplasm between the nucleus and the luminal surface. Pre-goblet cells are defined as cells with smaller mucus-stained areas (<1/3 height in epithelium from basement membrane to luminal surface) or with sparsely and lightly Alcian blue/PAS-stained, small granules. Ciliated cells are recognized by their ciliated borders, lightly stained cytoplasm, and large round nuclei. Non-granulated secretory cells are columnar in shape and extend from the lumen to the basal lamina. The cytoplasm stains light pink color, and a few tiny PAS-positive and Alcian blue-negative granules are observed in the cytoplasm. Basal cells are small flattened cells with a large nucleus, located just above the basal lamina but not reaching the airway lumen.
Quantification of goblet cell production. Goblet cell production, was determined by the volume density of Alcian blue/PAS-stained mucosubstances on the mucosal surface epithelium using a semi-automatic imaging system described elsewhere (Weber et al. (1984) Science 224:294-297). We measured the Alcian blue/PAS-positive stained area and the total epithelial area and expressed the data as the percentage of the total area stained by Alcian blue-PAS. The analysis was performed with the public domain NIH Image program (developed at the U.S. National Institute of Health and available from the Internet by anonymous FTP from zippy.nimh.gov or on floppy disk from the National Technical Information Service, Springfield, Va., part number PB95-500195GEI).
Immunohistochemical localization of EGF-R in rat epithelium. The localization of EGF-R was examined using immunchistochemical staining with an antibody to EGF-R (Calbiochem, San Diego, Calif.) in frozen sections of rat trachea. After perfusion with 1% paraformaldehyde in PBS, tissues were placed in 4% paraformaldehyde in PBS for 1 h and then removed in 30% sucrose for cryoprotection overnight. Tracheas were embedded in O.C.T. compound (Sakura Finetek U.S.A., Inc., Torrance, Calif.) and frozen. Frozen sections (5 μm) were cut and placed on glass slides (Superfrost Plus, Fisher Scientific, Pittsburgh, Pa.). Immunostaining was performed similarly to the in vitro studies.

EGFR, sequence (P00533 25-1210): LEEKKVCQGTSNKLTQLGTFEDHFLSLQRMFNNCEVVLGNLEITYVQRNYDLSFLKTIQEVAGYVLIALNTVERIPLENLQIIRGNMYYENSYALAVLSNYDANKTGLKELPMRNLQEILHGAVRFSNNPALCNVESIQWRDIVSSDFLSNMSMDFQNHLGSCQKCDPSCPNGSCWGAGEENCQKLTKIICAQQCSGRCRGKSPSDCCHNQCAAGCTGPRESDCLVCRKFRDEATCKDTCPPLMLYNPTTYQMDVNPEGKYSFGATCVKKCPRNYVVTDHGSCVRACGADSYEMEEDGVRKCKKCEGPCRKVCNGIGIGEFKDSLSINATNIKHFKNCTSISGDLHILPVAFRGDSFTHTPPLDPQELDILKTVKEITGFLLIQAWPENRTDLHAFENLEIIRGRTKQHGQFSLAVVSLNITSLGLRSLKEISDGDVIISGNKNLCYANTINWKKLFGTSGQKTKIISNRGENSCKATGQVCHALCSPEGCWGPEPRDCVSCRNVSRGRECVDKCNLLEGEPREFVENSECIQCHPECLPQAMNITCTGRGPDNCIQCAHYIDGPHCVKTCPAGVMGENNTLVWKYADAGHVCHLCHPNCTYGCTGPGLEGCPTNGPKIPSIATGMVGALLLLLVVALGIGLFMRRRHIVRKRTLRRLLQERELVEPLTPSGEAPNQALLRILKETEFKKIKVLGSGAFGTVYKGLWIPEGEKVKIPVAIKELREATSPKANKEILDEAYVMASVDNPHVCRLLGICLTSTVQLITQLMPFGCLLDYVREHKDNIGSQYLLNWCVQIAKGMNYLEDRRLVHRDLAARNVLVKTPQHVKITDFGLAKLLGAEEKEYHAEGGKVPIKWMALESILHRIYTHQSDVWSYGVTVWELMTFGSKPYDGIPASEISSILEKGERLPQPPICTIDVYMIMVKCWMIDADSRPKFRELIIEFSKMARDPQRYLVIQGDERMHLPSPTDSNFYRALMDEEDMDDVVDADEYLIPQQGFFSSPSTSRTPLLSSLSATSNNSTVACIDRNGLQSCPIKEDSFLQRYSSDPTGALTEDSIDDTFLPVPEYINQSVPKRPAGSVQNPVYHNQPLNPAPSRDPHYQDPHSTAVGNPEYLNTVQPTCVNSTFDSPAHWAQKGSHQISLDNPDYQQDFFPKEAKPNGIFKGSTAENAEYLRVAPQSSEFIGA

Molecule | EGF-R-specific tyrosine phosphorylation (EGFR) | MUC5AC gene expression (NCI-H292 cells [1]) | maximum response in MUC5AC synthesis relative to the response to TGFα (NCI-H292 cells [2]) | MUC5AC synthesis in NCI-H292 cells, stimulus alone (NCI-H292 cells [2]; H2O2 200 μM, cigarette smoke solution) | PAS-positive staining on incubation with mediator (NCI-H292 cells [3]) | MUC5 gene expression on incubation with mediator (NCI-H292 cells [4]) | epithelial production of mucous glycoconjugates (pathogen-free rats)
OO [H2O2, hydrogen peroxide] | induced EGF-R-specific tyrosine phosphorylation | up-regulated | half | caused MUC5AC synthesis |  |  | 
EGF: recombinant human epidermal growth factor (Genzyme) |  |  |  |  | increased PAS-positive staining | clearly expressed at 24 h | had no effect

— US7531500B2, “Preventing airway mucus production by administration of EGF-R antagonists” (The Regents of the University of California, priority 1998, dated 2009)
